Legend:
[1] = Reduction kinetics with 10 eq. L-ascorbic acid in phosphate buffer, UHPLC; assay type: physicochemical; details: 10 eq. AA, PB pH 7.4, 20 °C; for original compound left in presence of AA: after 5 h
Description: (§1) PB (150 mM, pH 7.4) containing 1 mM platinum compound was incubated at 20 °C, with and without the addition of 10 eq. of AA. The reaction was monitored using a Thermo Scientific Dionex UltiMate 3000 UHPLC system with a Waters Acquity UPLC BEH C18 1.7 μm 3.0 × 50 mm column. Milli-Q water containing 0.1% formic acid and acetonitrile containing 0.1% formic acid were used as eluents. A gradient of 5–95% over 5 min was used with a flow of 0.6 mL min^−1. To evaluate the current state of the reaction, the peak area of the parental complex was used.

[2] = tested on: THP1-Dual, HCT116, HCT116/OxR and CT-26 cells; test: MTT-based cell viability assay, 72 h, statements over all investigated cell lines; design: species or system human and murine; details: none of the investigated cell lines vulnerable, read-out: IC50 of free single agent
Description: Cell models were seeded (2–2.5 × 10^3 cells per well) in 96-well plates. After 24 h of recovery, the compounds were applied at the concentrations indicated in triplicate. Cell viability was determined after 72 h of continuous drug incubation using an MTT-based cell viability assay (EZ4U, Biomedica, Vienna, Austria) according to the manufacturer's recommendations. Absorbance was measured at 450 nm (vs. 620 nm as reference) using a multimode microplate reader (Tecan Spark, Zurich, Switzerland). Half-maximal inhibitory concentrations (IC50 values) were derived via interpolation from dose–response curves, modeled with the four-parameter logistic (4PL) nonlinear regression model in GraphPad Prism (La Jolla, CA, USA) from at least three independent experiments.

[3] = tested on: IRF pathway (STING-dependent); test: IRF-inducible luciferase reporter in THP1-Dual reporter cell model; assay type: cell-based, human; details: for EC50: 24 h exposure, normalized to cell viability, oxaliplatin in combinations 5 μM
Source text: (§2) The THP1-Dual™ reporter cell model for simultaneously monitoring the activity of the IRF and NF-κB pathway contains an IRF-inducible luciferase reporter under the control of an ISG54 minimal promoter in conjunction with five interferon (IFN)-stimulated response elements, and an induced SEAP driven by an IFN-β minimal promoter fused to five copies of the NF-κB consensus transcriptional response element and three copies of the c-Rel binding site. The luciferase and SEAP reporter are measurable in the cell culture supernatant using QUANTI-Luc™ 4 Lucia/Gaussia (InvivoGen) and QUANTI-Blue™ (InvivoGen) solution, respectively. Cells were seeded at 1 × 10^5 cells per well in 96-well plates in RPMI-1640 medium, supplemented with 10% FCS, L-glutamine and Pen-Strep. After 2 h of recovery, the compounds were applied at the concentrations indicated in triplicate. The cell culture supernatant (SN) was collected after 24 h of drug incubation and secreted luciferase and SEAP reporter levels were measured according to the manufacturer's recommendations. In brief, for the detection of luciferase, 20 μL of SN were transferred into 96-well white opaque plates, and 30 μL of QUANTI-Luc™ reagent were added per well using an injector module in a multimode microplate reader (Tecan Spark, Zurich, Switzerland). Luminescence was recorded at a reading time of 0.1 second. For the detection of SEAP, 10 μL of SN were transferred to 96-well plates and 90 μL of QUANTI-Blue™ were added per well. Absorbance was measured at 620 nm. Half-maximal effective concentrations (EC50 values) were derived via interpolation from dose–response curves, modeled with the four-parameter logistic (4PL) nonlinear regression model in GraphPad Prism. For comparison, the maximal response rate of the prodrug was depicted in the percent of the maximal response rate achieved by SR-717 or MSA-2 (%EMAX) at the respective concentrations tested. Activatability, tested in co-incubation experiments with AA (50 μM), was expressed as the area under the curve (AUC) ratio of +AA vs. −AA-treated cells. The STING-dependency of the reporter induction was tested by co-administration of the STING inhibitor H-151 (10 μM), added to the cell culture medium 2 h before applying the investigated compounds. In addition to monitoring secreted reporter levels, the cell viability of the reporter cells was determined after 24 h of drug treatment by an MTT-based cell viability assay.

[4] = tested on: NF-κB pathway (STING-dependent); test: NF-κB-inducible SEAP reporter in THP1-Dual reporter cell model; assay type: cell-based, human; details: for EC50: 24 h exposure, normalized to cell viability, oxaliplatin in combinations 5 μM
Source text: as §2

[5] = tested on: THP1-Dual cells; test: Western blot analysis of STING downstream pathway, DNA damage and cell death markers; assay type: cell-based, human; details: 24 h
Description: The THP1-Dual cell model was seeded at 1 × 10^6 cells per well in six-well plates. After 24 h of recovery, the compounds were applied at the concentrations indicated. After 24 h of drug exposure, whole-cell protein isolation was performed as described previously.[14] Sodium dodecyl sulfate polyacrylamide gel electrophoresis was performed. Proteins were transferred onto polyvinylidene difluoride membranes (Thermo Scientific, Waltham, MA, USA). Antibodies targeting STING (##13 647; 1 : 1000), phospho-STING (#19 781; 1 : 500), TBK1 (#3504; 1 : 500), IRF-3 (#4302; 1 : 500), phospho-p65 (#3033; 1 : 500), ISG15 (#2743; 1 : 1000), caspase-3 (#9665; 1 : 1000), cleaved caspase-3 (#9661; 1 : 1000), PARP (#9532; 1 : 1000), and cleaved PARP (#9541; 1 : 1000) were purchased from Cell Signaling Technology (Danvers, MA, USA). The p65 antibody (#sc-372; 1 : 1000) was purchased from Santa Cruz and the phospho-H2A.X antibody (#05-636-I; 1 : 500) was obtained from Merck (Darmstadt, Germany). The anti-β-actin (#5441; 1 : 2000) antibody was obtained from Sigma-Aldrich. The anti-mouse IgG (#A0168; 1 : 10 000) horseradish peroxidase (HRP)-coupled secondary antibody was purchased from Sigma-Aldrich, and the anti-rabbit IgG (#7074; 1 : 5000) HRP-linked secondary antibody was obtained from Cell Signaling Technology.

[6] = tested on: THP1-Dual cells; test: Quantitative RT-PCR of target genes downstream of STING; assay type: cell-based, human; details: 24 h, prodrugs 100 μM, MSA-2 25 μM
Description: The THP1-Dual cell model was seeded at 1 × 10^6 cells per well in six-well plates. After 24 h of recovery, the compounds were applied at the concentrations indicated. After 24 h of drug exposure, total RNA was isolated using TRIzol reagent (Thermo Fisher Scientific, MA, USA), as described previously.[12] RNA was reverse transcribed into cDNA using RevertAid Reverse Transcriptase (Thermo Fisher Scientific). Real-time PCR was performed using the GoTaq® RT-qPCR system (Promega) with a CFX96 Touch Real-Time PCR Detection System (Bio-Rad Laboratories). Relative mRNA levels were quantified using the 2^−ddCT method.[54] RPL41 was used as a housekeeping gene. Human-specific primers were purchased from Eurofins Genomics (Ebersberg, Germany) with the following sequences: RPL41: fwd (5′-[…]-3′), rev (5′-[…]-3′); IFNB1: fwd (5′-CTTGGATTCCTACAAAGAAGCAGC-3′), rev (5′-[…]-3′); ISG15: fwd (5′-[…]-3′), rev (5′-[…]-3′); IFIT1: fwd (5′-[…]-3′), rev (5′-[…]-3′); CXCL10: fwd (5′-[…]-3′), rev (5′-[…]-3′); and CCL5: fwd (5′-[…]-3′), rev (5′-[…]-3′).

[7] = tested on: THP1-Dual cells; test: Cytokine and chemokine secretion in cell culture supernatant, Luminex; assay type: cell-based, human; details: 24 h, prodrug 100 μM, MSA-2 25 μM
Description: Quantification of secreted protein targets in either cell culture SN or in plasma of treated animals was performed using a ProcartaPlex (96-well) multiplex assay panel (Thermo Fisher Scientific) in the xMAP detection platform (Luminex). For the in vitro detection of secreted proteins, THP1-Dual cells were seeded at 1 × 10^5 cells per well in 96-well plates in RPMI-1640 medium, supplemented with 10% FCS, L-glutamine and Pen-Strep. After 24 h of recovery, the compounds were applied at the concentrations indicated in triplicate.
After 24 h of drug incubation, the cell culture SN of technical triplicate was collected, pooled, centrifuged (400g, 10 min, 4 °C), transferred into a fresh tube, and stored at −20 °C.
Next, the ProcartaPlex (96-well) multiplex assay panel was performed according to the manufacturer's recommendations. In brief, the capture bead mix was incubated with test samples (undiluted SN or mouse plasma) or standard mix overnight. The SN of three independent experiments or the plasma of four animals per treatment group was loaded onto the multiplex assay plate. Next, biotinylated detection antibody mix and Streptavidin-PE were added to the plate. Following the recommended washing steps, the samples were incubated in a reading buffer and were measured using a Luminex xMAP platform (Bio-Plex MAGPIX Multiplex Reader; Bio-Rad Laboratories) and analyzed using xPONENT software.

[8] = tested on: CT-26 tumors; test: Anticancer efficacy in vivo, syngeneic colorectal carcinoma; design: species or system BALB/c mice; details: i.v. twice a week for two weeks, equimolar to 9 mg kg^−1 oxaliplatin
Description: Tumor size was determined daily via manual caliper measurement. […] Animals were euthanized via cervical dislocation.

[9] = Hydrolytic stability in phosphate buffer, UHPLC; assay type: physicochemical; details: 1 mM, 150 mM PB pH 7.4, 20 °C, over 5 h
Description: as §1

[10] = tested on: THP1-Dual cells; test: Intracellular platinum accumulation in vitro by ICP-MS; assay type: cell-based, human; details: 3 h exposure, compared to oxaliplatin
Description: The THP1-Dual cell model was seeded at 1 × 10^6 cells per well in six-well plates. After 24 h of recovery, the compounds were applied at the concentrations indicated in triplicate. After 3 h of drug exposure, the cells were prepared as published previously.[13] […] The lysate was filled up to 8 mL with water. The platinum concentration was determined by ICP-MS analysis. Platinum and rhenium standards were derived from CPI International (Amsterdam, the Netherlands). The total platinum content was determined with an Agilent 7800 quadrupole-based ICP-MS instrument (Agilent Technologies, Tokyo, Japan) equipped with an Agilent SPS 4 autosampler (Agilent Technologies, Tokyo, Japan) and a MicroMist nebulizer at a sample uptake rate of approximately 0.2 mL min^−1. […] Argon was used as a plasma gas (15 L min^−1) and as a carrier gas (∼1.1 L min^−1). The dwell time was set to 0.1 s and the measurements were performed in 12 replicates with 100 sweeps. Rhenium served as an internal standard for platinum.

[11] = 24 h, maximal response relative to SR-717
[12] = H-151 10 μM added 2 h before the compounds

Structure (SMILES): CC(=O)[O][Pt-2]12([O]C(=O)c3cc(F)c(F)cc3N)([NH2+][C@@H]3CCCC[C@H]3[NH2+]1)[O]C(=O)C(=O)[O]2 [Ox-Bz-F2-NH2]
- original compound left in presence of AA [1]: approximately 80%

Structure (SMILES): CC(=O)Nc1cc(F)c(F)cc1C(=O)[O][Pt-2]12([O]C(C)=O)([NH2+][C@@H]3CCCC[C@H]3[NH2+]1)[O]C(=O)C(=O)[O]2 [Ox-Bz-F2-NHAc]
- original compound left in presence of AA [1]: 40%

Structure (SMILES): COc1cc2cc(C(=O)CCC(=O)O)sc2cc1OC [MSA-2]
- IC50 [2]: > 75 µM
- IRF EC50 ratio fold MSA-2 ([3]; 24 h): 1.0 fold
- activation of IRF signaling pathway ([3]; 24 h): robustly activated
- fold lower IRF-inducing activity compared to SR-717 ([3]; 24 h): ~3.1 fold
- IRF %EMAX of MSA-2 ([3]; 24 h, maximal response relative to MSA-2, highest tested dose 100 μM): 100%
- EC50 [3]: 9.1 µM
- impact of reducing conditions on IRF-induced reporter signal (AUC ratio +AA/−AA) ([3]; AA 50 μM): no notable modulation
- NF-κB EC50 ratio fold MSA-2 ([4]; 24 h): 1.0 fold
- activation of NF-κB signaling pathway ([4]; 24 h): robustly activated
- NF-κB %EMAX of MSA-2 ([4]; 24 h, maximal response relative to MSA-2): 100%
- EC50 [4]: 17.7 µM
- DNA damage (p-H2A.X upregulation, cleavage of caspase-3 and PARP) [5]: induced DNA damage
- induction of ISG15 [5]: triggered
- phosphorylation of NF-κB (p65) [5]: only detected in cells treated with MSA-2
- mRNA induction of immune response genes (IFN-β, ISG15, IFIT1, CXCL10, CCL5) [6]: distinctly induced
- secretion of cytokines and chemokines [7]: induced distinct secretion of cytokines and chemokines
- tumor growth [8]: significantly inhibited malignant growth

Structure (SMILES): CC(=O)[O][Pt-2]12([O]C(=O)c3ccc(F)c(F)c3)([NH2+][C@@H]3CCCC[C@H]3[NH2+]1)[O]C(=O)C(=O)[O]2 [Ox-Bz-F2]
- original compound left in presence of AA [1]: approximately 95%

Structure (SMILES): COCCOCCOCCOCCC(=O)[O][Pt-2]12([O]C(=O)c3cc(F)c(F)cc3NC(=O)c3ccc(-n4ccnc4)nn3)([NH2+][C@@H]3CCCC[C@H]3[NH2+]1)[O]C(=O)C(=O)[O]2 [Ox-SR-PEG-Es]
- hydrolytic stability [9]: No significant hydrolysis
- original prodrug remaining in presence of AA ([1]; after ∼3 h): only traces
- cellular platinum accumulation [10]: significantly higher platinum levels compared to oxaliplatin
- IRF %EMAX of SR-717 [3, 11]: 66%
- EC50 [3]: 12.4 µM
- NF-κB %EMAX of SR-717 [4, 11]: 52%
- EC50 [4]: 35.1 µM

Structure (SMILES): CCc1ccc(NC(=O)Nc2c[nH]c3ccccc23)cc1 [H-151]
- effect on agonist- and prodrug-induced IRF reporter signal [3, 12]: completely abolished
- effect on agonist- and prodrug-induced NF-κB reporter signal [4, 12]: completely abolished

Structure (SMILES): CC(=O)[O][Pt-2]12([O]C(=O)c3ccccc3)([NH2+][C@@H]3CCCC[C@H]3[NH2+]1)[O]C(=O)C(=O)[O]2 [Ox-Bz]
- original compound left in presence of AA [1]: approximately 95%

Reference: publication PMC11969438 (Inorganic Chemistry Frontiers, 2025)
